Experimental findings from US8946266B2, “Substituted triazole and imidazole derivatives as gamma secretase modulators” (Janssen Pharmaceuticals, Inc., priority 2009, dated 2015) are described below.

A word on the IC50: it is the concentration that inhibits the measured activity by half.

Each structure is given as a SMILES string. Like-named read-outs stand apart in the source and are kept apart here.

The subject of one experiment is Aβtotal. Put plainly: γ-secretase-modulating activity, Method 2: Aβtotal Alphalisa in supernatant of SKNBE2 cells carrying APP 695-wild type (Table 3b). Format: cell-based. The following applies: overnight, read-out: IC50 Aβtot. The method, boiled down:
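SKNBE2 cells expressing wild-type APP 695 were incubated overnight at 37 °C, 5% CO2 with test compound at a range of concentrations. Aβtotal in supernatant was measured by AlphaLISA sandwich (N-terminal JRF/AβN/25 acceptor, biotinylated mid-region 4G8 donor); IC50 from 4-parameter fit of percent control versus log concentration.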
(In general: In Alpha technology, singlet oxygen from a donor bead excites a nearby acceptor bead.)

For the next experiment, the system named is Aβ42. Kind of experiment: γ-secretase-modulating activity, Method 2: Aβ42 Alphalisa in supernatant of SKNBE2 cells carrying APP 695-wild type (Table 3b). The format is cell-based. Particulars: overnight. An outline of the steps:
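SKNBE2 cells expressing wild-type APP695 were incubated overnight at 37° C. with test compound. Secreted Aβ42 was then measured by AlphaLISA, using a C-terminal Aβ42 antibody paired with an N-terminal Aβ antibody. IC50 came from a 4-parameter fit of percent of compound-free control.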

For `COc1ccc(Cl)cc1Nc1nc(-c2ccc(-n3cnc(C)c3)c(OC)c2)nn1C` [Compound 192], the results for the IC50 in the experiment with Aβtotal and in the experiment with Aβ42 were 9550 nM and 41 nM, respectively.

Regarding `COc1cc(Nc2nc(-c3ccc(-n4cnc(C)c4)c(OC)c3)nn2C)ccc1F` [Compound 193], the results for the IC50 with Aβtotal and in the experiment on Aβ42 were greater than 10000 nM and 63 nM, respectively.

Turning to `COc1cc(-c2nc(Nc3cccc(Cl)c3OC)n(C)n2)ccc1-n1cnc(C)c1` [Compound 194], the results for the IC50 in the experiment on Aβtotal and in the experiment with Aβ42 were greater than 10000 nM and 65 nM, respectively.

With `COc1ccc(F)c(Nc2nc(-c3ccc(-n4cnc(C)c4)c(OC)c3)nn2C)c1` [Compound 195], the figures for the IC50 with Aβtotal and with Aβ42 were greater than 10000 nM and 95 nM, respectively.

`COc1cc(-c2nc(Nc3c(F)ccc(OC)c3F)n(C)n2)ccc1-n1cnc(C)c1` [Compound 196]: the IC50 was greater than 10000 nM in the experiment on Aβtotal and 129 nM in the experiment with Aβ42.

On to `COc1ccc(Nc2nc(-c3ccc(-n4cnc(C)c4)c(OC)c3)nn2C)c(F)c1` [Compound 197], for which the IC50 in the experiment with Aβtotal is greater than 10000 nM; with Aβ42 it was 135 nM.

As for `COc1ccc(C(F)(F)F)cc1Nc1nc(-c2ccc(-n3cnc(C)c3)c(OC)n2)nn1C` [Compound 201], the IC50 with Aβtotal is greater than 15000 nM; in the experiment with Aβ42, 15 nM.

`COc1cc(Nc2nc(-c3ccc(-n4cnc(C)c4)c(OC)c3)nn2C)c(F)c(C(F)(F)F)c1` [Compound 202]: the IC50 with Aβtotal is greater than 10000 nM; with Aβ42, 25 nM.

As to `CCOc1ccccc1Nc1nc(-c2ccc(-n3cnc(C)c3)c(OC)c2)nn1C` [Compound 205], the IC50 in the experiment on Aβtotal was greater than 10000 nM; in the experiment on Aβ42, 100 nM.

Turning to `Cc1cn(-c2ccc(-c3nc(Nc4cccc(C(F)(F)F)c4)n(C)n3)cc2)cn1` [Compound 206], the IC50 was found to be 8130 nM in the experiment on Aβtotal and 166 nM in the experiment with Aβ42.

On to `Cc1cn(-c2ccc(-c3nc(Nc4cc(C(F)(F)F)ccc4F)n(C)n3)cc2)cn1` [Compound 207], for which the figures for the IC50 in the experiment on Aβtotal and in the experiment on Aβ42 were greater than 10000 nM and 123 nM, respectively.

As for `COc1cc(-c2nc(Nc3c(F)cccc3C(F)(F)F)n(C)n2)ccc1-n1cnc(C)c1` [Compound 208], the IC50 was greater than 10000 nM in the experiment with Aβtotal and 178 nM with Aβ42.

As to `COCCn1nc(-c2ccc(-n3cnc(C)c3)c(OC)c2)nc1Nc1cc(C(F)(F)F)ccc1F` [Compound 209], the IC50 in the experiment with Aβtotal is 9550 nM; in the experiment on Aβ42, 52 nM.

For the compound `COc1cc(-c2nc(Nc3cc(C(F)(F)F)cc(Cl)c3F)n(C)n2)ccc1-n1cnc(C)c1` [Compound 210], the IC50 in the experiment with Aβtotal is greater than 10000 nM; in the experiment with Aβ42, 35 nM.

With `COc1cc(-c2nc(Nc3cc(C(F)(F)F)c(Cl)cc3F)n(C)n2)ccc1-n1cnc(C)c1` [Compound 212], the IC50 is greater than 10000 nM in the experiment on Aβtotal and 17 nM in the experiment on Aβ42.

With `COc1cc(F)ccc1Nc1nc(-c2ccc(-n3cnc(C)c3)c(OC)c2)nn1C` [Compound 215], the results for the IC50 in the experiment on Aβtotal and in the experiment on Aβ42 were greater than 10000 nM and 269 nM, respectively.

In the case of `COc1cc(F)c(F)c(Nc2nc(-c3ccc(-n4cnc(C)c4)c(OC)c3)nn2C)c1` [Compound 216], the IC50 was greater than 10000 nM with Aβtotal and 76 nM in the experiment with Aβ42.

Take `COc1ccc(C(F)(F)F)c(Nc2nc(-c3ccc(-n4cnc(C)c4)c(OC)c3)nn2C)c1` [Compound 218]: the results for the IC50 with Aβtotal and in the experiment on Aβ42 were greater than 10000 nM and 14 nM, respectively.

Consider `COc1cc(-c2nc(Nc3cccc(F)c3OC)n(C)n2)ccc1-n1cnc(C)c1` [Compound 219], for which the figures for the IC50 in the experiment with Aβtotal and with Aβ42 were greater than 10000 nM and 91 nM, respectively.

Regarding `COc1cc(F)c(C(F)(F)F)cc1Nc1nc(-c2ccc(-n3cnc(C)c3)c(OC)c2)nn1C` [Compound 220], the IC50 with Aβtotal is greater than 10000 nM; in the experiment on Aβ42, 63 nM.

Consider `COc1cc(-c2nc(Nc3cc(NC(C)=O)ccc3F)n(C)n2)ccc1-n1cnc(C)c1` [Compound 221], for which the values for the IC50 with Aβtotal and in the experiment with Aβ42 were greater than 10000 nM and 708 nM, respectively.

With `COc1cc(-c2nc(Nc3cccc(NC(C)=O)c3)n(C)n2)ccc1-n1cnc(C)c1` [Compound 222], the IC50 with Aβtotal is greater than 10000 nM; in the experiment with Aβ42, 1150 nM.

As to `COc1cc(-c2nc(Nc3cc(C(C)=O)ccc3F)n(C)n2)ccc1-n1cnc(C)c1` [Compound 223], the figures for the IC50 with Aβtotal (Homo sapiens) and in the experiment with Aβ42 (Homo sapiens) were greater than 10000 nM and 126 nM, respectively.

Take `COc1cc(-c2nc(Nc3cccc(C#N)c3)n(C)n2)ccc1-n1cnc(C)c1` [Compound 224]: the IC50 with Aβtotal is greater than 10000 nM; in the experiment on Aβ42, 646 nM.

Regarding `COc1cc(-c2nc(Nc3ccc(C#N)cc3)n(C)n2)ccc1-n1cnc(C)c1` [Compound 225], the figures for the IC50 in the experiment on Aβtotal and in the experiment with Aβ42 were greater than 10000 nM and 1440 nM, respectively.

Take `COc1cc(-c2nc(Nc3cc(C#N)ccc3F)n(C)n2)ccc1-n1cnc(C)c1` [Compound 226]: the IC50 was greater than 10000 nM with Aβtotal and 417 nM with Aβ42.

As to `COc1cc(-c2nc(Nc3ccc(C#N)cc3F)n(C)n2)ccc1-n1cnc(C)c1` [Compound 227], the IC50 in the experiment on Aβtotal was 891 nM; in the experiment with Aβ42 it was 676 nM.

Regarding `COc1cc(-c2nc(Nc3ccc(F)cc3C#N)n(C)n2)ccc1-n1cnc(C)c1` [Compound 228], the IC50 in the experiment on Aβtotal is greater than 10000 nM; with Aβ42, 4470 nM.

On to `COc1cc(-c2nc(Nc3cccc(C#N)c3F)n(C)n2)ccc1-n1cnc(C)c1` [Compound 229], for which the IC50 was greater than 10000 nM in the experiment on Aβtotal and 295 nM with Aβ42.

For `COc1cc(-c2nc(Nc3ccc(C#N)cc3C(F)(F)F)n(C)n2)ccc1-n1cnc(C)c1` [Compound 230], the figures for the IC50 in the experiment with Aβtotal and in the experiment with Aβ42 were greater than 10000 nM and 302 nM, respectively.

With `COc1cc(-c2nc(Nc3ccc4c(c3)OC(F)(F)O4)n(C)n2)ccc1-n1cnc(C)c1` [Compound 231], the values for the IC50 in the experiment with Aβtotal and with Aβ42 were 5890 nM and 56 nM, respectively.

`COc1cc(-c2nc(N(C(C)=O)c3cc(F)c(F)cc3I)n(C)n2)ccc1-n1cnc(C)c1` [Compound 232]: the figures for the IC50 in the experiment on Aβtotal (Homo sapiens) and in the experiment on Aβ42 (Homo sapiens) were greater than 10000 nM and 1410 nM, respectively.

As to `COc1cc(-c2nc(Nc3cccnc3C(F)(F)F)n(C)n2)ccc1-n1cnc(C)c1` [Compound 233], the IC50 in the experiment with Aβtotal was greater than 10000 nM; in the experiment on Aβ42 it was 603 nM.

On to `COc1cc(-c2nc(Nc3ccnc(Cl)c3)n(C)n2)ccc1-n1cnc(C)c1` [Compound 234], for which the results for the IC50 in the experiment with Aβtotal and in the experiment with Aβ42 were greater than 10000 nM and 955 nM, respectively.

For `COc1cc(-c2nc(Nc3ccnc(C(F)(F)F)c3)n(C)n2)ccc1-n1cnc(C)c1` [Compound 235], the IC50 in the experiment on Aβtotal was greater than 10000 nM; in the experiment on Aβ42, 132 nM.

For `COc1cc(-c2nc(Nc3cccnc3)n(C)n2)ccc1-n1cnc(C)c1` [Compound 237], the figures for the IC50 with Aβtotal and in the experiment with Aβ42 were greater than 10000 nM and 3160 nM, respectively.

Turning to `COc1cc(-c2nc(Nc3ccc(C)nc3)n(C)n2)ccc1-n1cnc(C)c1` [Compound 238], the IC50 in the experiment with Aβtotal was greater than 10000 nM; in the experiment with Aβ42, 1580 nM.

Take `COc1cc(-c2nc(Nc3ccnc(C)c3)n(C)n2)ccc1-n1cnc(C)c1` [Compound 239]: the IC50 is greater than 10000 nM in the experiment on Aβtotal and 4470 nM in the experiment on Aβ42.

In the case of `COc1cc(-c2nc(Nc3ncccc3C(F)(F)F)n(C)n2)ccc1-n1cnc(C)c1` [Compound 240], the IC50 in the experiment with Aβtotal is greater than 10000 nM; in the experiment on Aβ42, 794 nM.

On to `COc1cc(-c2nc(Nc3cccnc3OC)n(C)n2)ccc1-n1cnc(C)c1` [Compound 241], for which the IC50 with Aβtotal is greater than 10000 nM; with Aβ42, 741 nM.

For the compound `COc1cc(-c2nc(Nc3ccc(=O)n(C)c3)n(C)n2)ccc1-n1cnc(C)c1` [Compound 242], the IC50 in the experiment with Aβtotal and with Aβ42 was greater than 10000 nM in each case.

With `COc1cc(-c2nc(Nc3cccn(C)c3=O)n(C)n2)ccc1-n1cnc(C)c1` [Compound 243], the IC50 with Aβtotal was greater than 10000 nM; with Aβ42 it was 8320 nM.

Turning to `COc1cc(-c2nc(NCc3ccccc3)n(C)n2)ccc1-n1cnc(C)c1` [Compound 245], the IC50 in the experiment with Aβtotal was greater than 10000 nM; in the experiment with Aβ42, 646 nM.

As to `COc1cc(-c2nc(Oc3cccc(C(F)(F)F)c3)n(C)n2)ccc1-n1cnc(C)c1` [Compound 246], the values for the IC50 in the experiment with Aβtotal and in the experiment with Aβ42 were 9770 nM and 269 nM, respectively.

As for `COc1cc(-c2nc(Oc3ccccc3Cl)n(C(C)C)n2)ccc1-n1cnc(C)c1` [Compound 247], the IC50 in the experiment on Aβtotal was found to be 8130 nM; in the experiment with Aβ42 it was 363 nM.

On to `COc1cc(-c2nc(Oc3ccccc3Cl)n(C)n2)ccc1-n1cnc(C)c1` [Compound 248], for which the IC50 with Aβtotal is greater than 10000 nM; with Aβ42 it was 389 nM.

For `COc1cc(-c2nc(Sc3cccc(C(F)(F)F)c3)n(C)n2)ccc1-n1cnc(C)c1` [Compound 249], the figures for the IC50 with Aβtotal (Homo sapiens) and with Aβ42 (Homo sapiens) were greater than 10000 nM and 646 nM, respectively.

For `COc1cc(-c2nc3n(n2)CCCC3c2cccc(F)c2)ccc1-n1cnc(C)c1` (centres unmarked) [Compound 252], the values for the concentration for half-maximal inhibition (IC50) with Aβtotal and in the experiment on Aβ42 were greater than 10000 nM and 240 nM, respectively.

As to `COc1nc(-c2nc3n(n2)CCCC3c2ccc(F)cc2)ccc1-n1cnc(C)c1` (centres unmarked) [Compound 253], the IC50 with Aβtotal is greater than 10000 nM; with Aβ42, 170 nM.

Consider `COc1cc(-c2nc3n(n2)CCC[C@@H]3c2ccccc2Cl)ccc1-n1cnc(C)c1` [Compound 254], for which the results for the IC50 in the experiment with Aβtotal and with Aβ42 were greater than 10000 nM and 234 nM, respectively.

For the compound `COc1cc(-c2nc3n(n2)CCCC3c2ccccc2Cl)ccc1-n1cnc(C)c1` (centres unmarked) [Compound 256], the IC50 was greater than 10000 nM with Aβtotal and 21 nM with Aβ42.

On to `COc1cc(-c2nc3n(n2)CCCC3c2ccccc2F)ccc1-n1cnc(C)c1` (centres unmarked) [Compound 257], for which the IC50 in the experiment with Aβtotal was greater than 10000 nM; with Aβ42 it was 148 nM.

With `COc1cc(-c2nc3n(n2)CCCC3c2ccc(F)cc2F)ccc1-n1cnc(C)c1` (centres unmarked) [Compound 259], the IC50 in the experiment on Aβtotal was greater than 10000 nM; in the experiment on Aβ42 it was 158 nM.

Take `COc1nc(-c2nc3n(n2)CCC[C@@H]3c2ccccc2C(F)(F)F)ccc1-n1cnc(C)c1` [Compound 262]: the IC50 is greater than 10000 nM with Aβtotal and 324 nM with Aβ42.

In the case of `COc1cc(-c2nc3n(n2)CCCC3c2ccccc2OC(F)(F)F)ccc1-n1cnc(C)c1` (centres unmarked) [Compound 266], the IC50 in the experiment on Aβtotal was greater than 3000 nM; in the experiment with Aβ42, 74 nM.
